# Experimental data as given in patent US10533185B2, “Method for producing polyploidized megakaryocyte and platelets” (The University of Tokyo, priority 2011, dated 2020).
# How the values were obtained:
# Assay type in all cases: cell-based, human
# [1] = system: megakaryocytes before polyploidization derived from ES cells; experiment: Ploidy assay: FACS after Hoechst and anti-CD41a staining; settings: for number of cells with 8N or greater: 10 μg/ml
# Experimental: After introduction of MYC and MBI1 genes, the resulting megakaryocytes (about 10^5) were cultured for about 30 days in the absence of doxycycline and presence of estradiol under the culturing conditions of 37° C. and presence of 5% CO2 to proliferate them to about 10^11. Culturing was continued further while changing the condition to the presence of doxycycline and absence of estradiol in order to suppress the expression of the MYC gene and the BMI1 gene in the thus proliferated megakaryocytic cell line and adding an ROCK inhibitor (Y27632; product of Wako Pure Chemicals) to the culture medium to give a concentration of 10 μM in order to determine the influence of Y27632 on polyploidization. On Day 7 after culturing was started while adding Y27632 to the culture medium, the degree of polyploidization was studied using FACS (FIG. 5).
# The degree of polyploidization was studied (ploidy assay) by suppressing expression of MYC/BMI1 in the presence of 10 μM of Y27632 while inducing […] of BCL-XL, and culturing the resulting cells for 7 days.
# Influence on polyploidization was studied by further treating the cells, which was subjected to the treatment of 2-7-4, with valproic acid. After suppression of expression of MYC/BMI1, forced expression of BCL-XL, treatment with the ROCK inhibitor (10 μM), and suppression of expression of p53, valproic acid (final concentration: 0.5 mM) was added to the medium and culturing was conducted at 39° C. for 7 days.
# After suppression of expression of MYC/BMI1, forced expression of BCL-XL, and treatment with blebbistatin (10 μg/ml), the resulting cells were cultured at 39° C. for 7 days.
# (§1) Next, the degree of polyploidization when the blebbistatin treatment was used in combination with the other treatments was studied. The cells were subjected to blebbistatin treatment in addition to the above-mentioned treatments in Section 2-7-5 and influence of them on polyploidization was studied. After suppression of expression of MYC/BMI1, forced expression of BCL-XL, treatment with a ROCK inhibitor (10 μM), suppression of expression of p53, and treatment with valproic acid (0.5 mM), treatment with blebbistatin (10 μg/ml) was conducted and then, the resulting cells were cultured at 39° C. for 7 days. […] Induction to mature megakaryocytes was therefore confirmed (lower graph in FIG. 13).
# iMKPC-type II cells [2] = experiment: Platelet production from iMKPC-type II cells: flow cytometry for CD41/CD42b; settings: 5 μM, 37° C., 3 days, with/without feeder cells and serum
# Experimental: A platelet production efficiency was measured by using the following conditions in combination as shown in FIG. 17: use/non-use of feeder cells, use/non-use of Conditioned Medium, use of serum medium/use of serum-free medium, and administration/non-administration of blebbistatin.
# Conditioned Medium was prepared by seeding 8×10^5 MMC-treated 10T1/2 cells on a 10-cm dish subjected to gelatin coating, changing the medium with 10 ml of a differentiation medium (EBM) containing SCF (50 ng/ml) and TPO (50 ng/ml) and further containing 15% serum or not containing a serum on the next day (after adhesion of cells), recovering the medium and adding 10 ml of a new medium (containing SCF and TPO) 24 hours later, pooling three-day's Conditioned Medium, and filtering the medium through a 0.22-μm filter to remove the 10T1/2 cells. When the resulting medium was used for tests, SCF and TPO were added newly. […]
# The platelets contained in the supernatant of the medium were analyzed with a flow cytometer after staining with an antibody CD41 and an antibody CD42b. […]
# Comparison in the expression level of CD42b in CD41-positive platelets in each population (a ratio of average fluorescence intensity of each population to average fluorescence intensity of normal condition) is shown in FIG. 18. […]
# megakaryocytes (CD41a+) = experiment: Growth curve and micrographs of cells treated with blebbistatin plus the other treatments; settings: 10 μg/ml with the other treatments, after culturing for 7 days
# Experimental: as §1
# iMKPC-type II cells [3] = experiment: Microscopic observation of polyploidization of iMKPC-type II; settings: 5 μg/ml; c-MYC and BMI1 off, BCL-XL forced, p53 knocked down
# Excerpt: It was observed that by turning off the expression of c-MYC and BMI1, forcing expression of BCL-XL, and knocking down the p53 gene, the cells become increasingly polyploidized.
# iMKPC-type II cells [4] = experiment: Cytokine dependence and surface markers of iMKPC-type II; settings: for proliferation of iMKPC-type II cells: SCF 50 ng/ml, TPO 50 ng/ml, 39° C., 21 days, Dox 0.5 μg/ml
# Experimental: On 10T1/2 feeder cells, 2×10^5 iMKPC-type II cells were seeded, followed by culturing in the presence of 0.5 μg/ml of Dox at 39° C. for 21 days under the conditions of cytokines, that is, SCF (50 ng/ml), TPO (50 ng/ml), and EPO (6 U/ml).
# On Day 21 after addition of cytokine, the cells were analyzed with a flow cytometer after staining with a CD41 antibody, a CD42b body, and a GPA antibody.
# iMKPC-type I cells = experiment: Cytokine dependence of iMKPC-type I proliferation; settings: SCF 50 ng/ml, TPO 50 ng/ml, 37° C., 14 days, 10T1/2 feeder cells
# Experimental: The cytokine dependence of iMKPC-type I was studied by seeding 2×10^5 iMKPC-type I cells on 10T1/2 feeder cells and culturing them for 14 days at 37° C. under the conditions shown in FIG. 1A in the presence of 2 uM of β-estradiol while using the following cytokines: SCF (50 ng/ml), TPO (50 ng/ml), and EPO (6 U/ml). A population in which proliferation was confirmed on Day 4 and Day 11 was counted for cell number, and 2×10^5 cells were replated, while the medium of the other populations was changed. The number of cells was counted on Day 8 and Day 14 and 2×10^5 cells were replated. At the same time, on Day 8, some of the cells were analyzed with a flow cytometer after staining with a CD41 antibody, a CD42b antibody, and a GPA antibody.
compound,measurement,setting,value
"C[C@@H](N)[C@H]1CC[C@H](C(=O)Nc2ccncc2)CC1.Cl.Cl.O (relative stereo) [Y27632, (R)-(+)-trans-N-(4-pyridyl)-4-(1-aminoethyl)-cyclohexane carboxamide.2HCl.H2O]",number of cells with 4N (degree of polyploidization),"[1]; 10 μM, Day 7, MYC/BMI1 expression suppressed, compared with cells without inhibitor (vehicle)",increase in the number of cells with 4N
Cc1ccc2c(c1)C(=O)C1(O)CCN(c3ccccc3)C1=N2 (centres unmarked) [blebbistatin],expression level of CD42b in CD41-positive platelets (ratio of average fluorescence intensity to normal condition),iMKPC-type II cells [2],Influence of blebbistatin was not found
same,platelet production amount (ratio of number of CD41+ CD42b+ platelets to normal condition),iMKPC-type II cells [2],No significant difference
same,cell morphology (cytoplasm),megakaryocytes (CD41a+),hypertrophy of cytoplasm was observed
same,proliferation capacity,megakaryocytes (CD41a+),slight deterioration in proliferation capacity
same,number of cells with 8N or greater,"[1]; 39° C., 7 days, MYC/BMI1 suppressed, BCL-XL forced, ROCK inhibitor 10 μM, p53 suppressed, valproic acid 0.5 mM, vs control cells",greater
same,number of cells with 8N or greater,"[1]; 39° C., 7 days, MYC/BMI1 suppressed, BCL-XL forced, vs cells without blebbistatin",greater
same,polyploidization by microscopic observation,iMKPC-type II cells [3],polyploidized further
CCCC(CCC)C(=O)O [valproic acid],degree of polyploidization,"[1]; 0.5 mM, 39° C., 7 days, MYC/BMI1 suppressed, BCL-XL forced, ROCK inhibitor 10 μM, p53 suppressed, vs untreated control cells",promoted polyploidization
SCF: cytokine added to the culture medium (50 ng/ml),proliferation of iMKPC-type II cells,iMKPC-type II cells [4],SCF had no influence on proliferation
same,proliferation of iMKPC-type I cells,iMKPC-type I cells,strongly depended on SCF
TPO: cytokine added to the culture medium (50 ng/ml),expression of CD41a and CD42b,"iMKPC-type II cells [4]; Day 21 after addition of cytokine, compared with the other populations",higher expression in CD41a and CD42b
same,proliferation of iMKPC-type II cells,iMKPC-type II cells [4],proliferation is promoted further
same,proliferation of iMKPC-type I cells,iMKPC-type I cells,TPO had no influence on their proliferation
